Reference: patent publication US20110306636A1, “OXAZOLE PYRIDINE DERIVATIVES USEFUL AS S1P1 RECEPTOR AGONISTS” (Merck Serono SA, priority 2009, published 2011)
Structures can show the parent of a compound that is named as a salt. Where two headings read alike, the source gives them in different places.

What was measured:
S1P1 [1] = target: T1, S1P1 (Homo sapiens, UniProt P21453); assay: 35S-GTPγS binding assay, S1P1 membranes; type: biochemical; settings: membranes from CHO cells expressing S1P1; read-out: S1P1/GTPG EC50
T1 sequence (P21453 whole entry, species assumed): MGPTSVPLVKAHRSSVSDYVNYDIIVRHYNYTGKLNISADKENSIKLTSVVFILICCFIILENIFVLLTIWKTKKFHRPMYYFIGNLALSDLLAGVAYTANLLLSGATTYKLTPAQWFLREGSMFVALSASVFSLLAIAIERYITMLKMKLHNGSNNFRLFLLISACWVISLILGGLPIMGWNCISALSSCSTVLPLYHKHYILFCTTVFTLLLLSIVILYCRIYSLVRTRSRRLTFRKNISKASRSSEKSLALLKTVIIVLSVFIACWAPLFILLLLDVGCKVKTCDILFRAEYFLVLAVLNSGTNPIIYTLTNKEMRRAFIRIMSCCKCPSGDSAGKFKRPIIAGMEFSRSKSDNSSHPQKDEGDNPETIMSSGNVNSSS
Description: (§1) Membranes Preparation: Membranes were prepared from CHO cells expressing S1P1 or S1P3 for use in ligand and 35S-GTPγS binding studies. Cells were suspended in 50 mM TRIS, pH 7.4, 2 mM EDTA, 250 mM Sucrose (buffer A) and 1× Complete protease inhibitor cocktail (Roche), and disrupted at 4° C. by N2 decompression using a cell disruption bomb (Parr Instrument). Following centrifugation at 1000 RPM for 10 min at 4° C., the supernatant was diluted (2×) in buffer A and centrifuged again at 19000 RPM for 75 min at 4° C. The pellet was then suspended in 10 mM HEPES, pH 7.4, 1 mM EDTA, 250 mM Sucrose (Buffer B), and 1× Complete EDTA-free protease inhibitor cocktail and homogenized using a potter. Membranes were flash frozen in liquid N2 and stored at −80° C.
Measurements of 35S-GTPγS Binding: Membranes (1 to 10 μg protein) prepared as described above, were incubated in 96-well Scintiplates (PerkinElmer) with test compounds diluted in DMSO, in 140 μl of 20 mM HEPES, pH 7.4, 10 mM MgCl2, 2 μg/well Saponin, 0.2% fatty acid free BSA (Assay buffer), 125 mM NaCl and 1.5 μM GDP. The assay was initiated with the addition of 60 μl of 1.5 nM [35S]-GTPγS (1100 Ci/mmol; GE Healthcare) in assay buffer. After 60 min incubation at 30° C. on a shaker, plates were centrifuged for 10 min at 2000 RPM. Supernatant was discarded and membrane bound radioactivity was measured on a PerkinElmer 1450 MicroBeta counter. Triplicate samples were averaged and expressed as % response relative to S1P activation in absence of compound (n=2).
The “potency” or the “activity” of the compounds is determined by the EC50 values as evaluated in the above described 35S-GTPγS binding assay.

S1P1 [2] = target: T1, S1P1; assay: Receptor binding assay, [33P]sphingosine 1-phosphate competition, S1P1
Description: as §1
(§2) Receptor binding assay: [33P]sphingosine 1-phosphate (3000 Ci/mmol; American Radiolabeled Chemicals, Inc.) was added to test compounds in 20% DMSO by competition. Membranes and WGA SPA beads (GE Healthcare) were added to give a final volume of 100 μl in 96-well plates or 50 μl in 384-well plates with assay concentrations of 30 pM or 15 pM [33P]sphingosine 1-phosphate (respectively for S1P1 or S1P3), 50 mM HEPES, pH 7.5, 5 mM MgCl2, 100 mM NaCl, 0.4% fatty acid-free BSA, 1-5 μg/well of proteins in 96-well plates vs 0.6-1 μg/well of proteins in 384-well plates and 100 μg/well of WGA SPA beads in 96-well plates vs 75 μg/well of WGA SPA beads in 384-well plates. Binding was performed for 60 min at RT on a shaker and bound radioactivity was measured on a PerkinElmer 1450 MicroBeta counter. Triplicate samples were averaged and normalized as purcentage of inhibition relative to total binding (only DMSO in well) and non specific binding (1000-fold excess of unlabeled S1P). Binding data were analyzed using the GraphPad Prism program or Genedata software.

[3] = target: T2, human S1P1 Receptor fused to the green fluorescent protein (EGFP) (Homo sapiens, UniProt P21453); assay: Internalization of S1P1 in S1P1-U2OS cells by cell imaging analysis; type: cell-based; settings: 1 hour incubation, 384-well
T2 construct: host or cells: U2OS (human bone osteosarcoma epithelial cells), CMV promoter, geneticin selection
T2 sequence (P21453 with tags, fused parts or gaps): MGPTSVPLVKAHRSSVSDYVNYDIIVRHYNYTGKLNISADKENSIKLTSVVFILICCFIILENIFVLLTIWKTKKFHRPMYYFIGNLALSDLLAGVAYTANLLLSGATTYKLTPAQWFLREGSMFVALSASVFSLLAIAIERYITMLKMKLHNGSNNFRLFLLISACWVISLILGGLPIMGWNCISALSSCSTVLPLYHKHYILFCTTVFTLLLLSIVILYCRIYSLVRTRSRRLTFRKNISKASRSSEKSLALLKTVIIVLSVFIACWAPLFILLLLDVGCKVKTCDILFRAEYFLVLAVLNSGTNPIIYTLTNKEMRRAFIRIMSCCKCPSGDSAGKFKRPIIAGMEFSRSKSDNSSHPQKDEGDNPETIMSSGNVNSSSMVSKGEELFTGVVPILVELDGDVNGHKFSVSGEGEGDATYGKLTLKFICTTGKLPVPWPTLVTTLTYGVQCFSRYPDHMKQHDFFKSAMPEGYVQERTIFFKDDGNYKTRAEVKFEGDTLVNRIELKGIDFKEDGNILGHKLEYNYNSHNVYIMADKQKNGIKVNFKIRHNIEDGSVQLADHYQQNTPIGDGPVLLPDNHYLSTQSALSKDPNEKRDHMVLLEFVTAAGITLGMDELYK
Description: Cellular Functional Assays: Internalization of Sphingosine-1-Phosphate Receptor 1 (S1P1) in a Human Cell Line (U2OS) in a 384-Well Format Using a Cell Imaging Analysis.
The S1P1 internalization assay was performed in 384 well plates (Corning® 384 black with clear bottom 3712) using S1P1-U2OS cells from BioImage (C039A), a human epithelial cell line (Human Bone Osteosarcoma Epithelial Cells). These cells expressed the human S1P1 Receptor fused to the green fluorescent protein (EGFP). A standard CMV promoter (cytomegalovirus promoter) controls the expression of S1P1-EGFP and continuous expression was maintained by addition of geneticin to the culture medium.
S1P1 Receptor desensitization induced the internalization of the membrane-localized S1P1-EGFP fusion protein to endosomes, which can be monitored by cell imaging analysis.
The cells are plated in low serum medium (Dulbecco's Modified Eagle Medium (DMEM) with Glutamax-1 and high glucose, 1% Penicillin/Streptomycin, 1% Fetal Calf Serum (FCS), 0.5 mg/ml Geneticin) overnight.
The next day, S1P1-U2OS cells are incubated in 20 μl serum free medium (DMEM with Glutamax-1 and high glucose, 0.1% of fatty-acid free Bovin Serum Albumin (BSA), 10 mM, N′-2-Hydroxyethylpiperazine-N′-2 ethanesulphonic acid (HEPES) 1M) for 2 hours at 37° C./5% CO2.
The cells are then treated with 4 μl compounds/agonists (6×/3% DMSO) for a total volume of 24 μl, and plates are incubated for 1 hour at 37° C./5% CO2.
S1P1-U2OS cells are fixed with 25 μl Paraformaldehyde 8% and stained with Hoechst 33345 dye (1:1000) for 20 minutes.
They were then washed 3 times with Phosphate Buffered Saline (PBS) and plates are sealed.
The internalization of the receptor S1P1-EGFP is measured on Cellomics by calculating the “spot count per object” (“object” corresponds to nuclear and “spot” corresponds to S1P1-EGFP receptor). Internalization data were observed thanks to vHCS View and analyzed using Genedata® software.

S1P3 = S1P3 (Homo sapiens, UniProt Q99500); assay: Receptor binding assay, [33P]sphingosine 1-phosphate competition, S1P3
S1P3, sequence (Q99500 whole entry, species assumed): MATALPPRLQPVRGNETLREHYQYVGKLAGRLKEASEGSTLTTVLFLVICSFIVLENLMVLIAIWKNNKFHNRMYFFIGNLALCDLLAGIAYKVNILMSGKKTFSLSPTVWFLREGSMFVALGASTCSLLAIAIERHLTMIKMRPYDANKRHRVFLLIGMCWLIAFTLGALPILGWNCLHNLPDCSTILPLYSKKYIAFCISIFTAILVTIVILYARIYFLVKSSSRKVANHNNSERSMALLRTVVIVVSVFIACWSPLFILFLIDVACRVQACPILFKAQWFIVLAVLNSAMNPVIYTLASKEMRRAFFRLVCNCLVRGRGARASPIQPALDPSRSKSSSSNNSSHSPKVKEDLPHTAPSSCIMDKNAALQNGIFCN
Description: as §1, §2

[4] = 96 well-plate, read-out: S1P1 binding IC50 (M) (96 well-plate)
[5] = 384 well-plate, read-out: S1P1 binding IC50 (M) (384 well-plate)
[6] = 384 well-plate, read-out: S1P3 binding IC50 (M) (384 well-plate)

COCc1cc(-c2nc(-c3ccc(NCCC(=O)OC(C)(C)C)nc3)no2)ccc1-c1ccccc1C [Example 1, tert-butyl N-(5-{5-[2-(methoxymethyl)-2′-methylbiphenyl-4-yl]-1,2,4-oxadiazol-3-yl}pyridin-2-yl)-beta-alaninate]
EC50 (S1P1 [1]): 134 nM

COCc1cc(-c2nc(-c3ccc(NCC(=O)O)nc3)no2)ccc1-c1ccccc1C [Example 3, N-(5-{5-[2-(methoxymethyl)-2′-methylbiphenyl-4-yl]-1,2,4-oxadiazol-3-yl}pyridin-2-yl)glycine, hydrochloride salt]
EC50 (S1P1 [1]): 131 nM

COCc1cc(-c2nc(-c3ccc(NC(C)=O)nc3)no2)ccc1-c1ccccc1C [Example 5, N-(5-{5-[2-(methoxymethyl)-2′-methylbiphenyl-4-yl]-1,2,4-oxadiazol-3-yl}pyridin-2-yl)acetamide, hydrochloride salt]
EC50 (S1P1 [1]): 14.6 nM

COCc1cc(-c2nc(-c3ccnc(N(C)C)c3)no2)ccc1-c1ccccc1C [Example 6, 4-{5-[2-(methoxymethyl)-2′-methylbiphenyl-4-yl]-1,2,4-oxadiazol-3-yl}-N,N-dimethylpyridin-2-amine, hydrochloride salt]
EC50 (S1P1 [1]): 145 nM

COCc1cc(-c2nc(-c3ccc(NCCCC(=O)O)nc3)no2)ccc1-c1ccccc1C [Example 8, 4-[(5-{5-[2-(methoxymethyl)-2′-methylbiphenyl-4-yl]-1,2,4-oxadiazol-3-yl}pyridin-2-yl)amino]butanoic acid, hydrochloride salt]
EC50 (S1P1 [1]): 9.99 nM

COCc1cc(-c2nc(-c3ccnc(NCC(=O)OC(C)(C)C)c3)no2)ccc1-c1ccccc1C [Example 10, tert-butyl N-(4-{5-[2-(methoxymethyl)-2′-methylbiphenyl-4-yl]-1,2,4-oxadiazol-3-yl}pyridin-2-yl)glycinate]
EC50 (S1P1 [1]): 140 nM

CCc1ccccc1-c1ccc(-c2nc(-c3ccc(N)nc3)no2)cc1COC [Example 12, 5-{5-[2′-ethyl-2-(methoxymethyl)biphenyl-4-yl]-1,2,4-oxadiazol-3-yl}pyridin-2-amine, hydrochloride salt]
IC50 (S1P1 [2]; [4]): 8.84e-09 M
EC50 (S1P1 [1]): 1.63 nM

COCc1cc(-c2nc(-c3cnc(N)cn3)no2)ccc1-c1ccccc1C [Example 16, 5-{5-[2-(methoxymethyl)-2′-methylbiphenyl-4-yl]-1,2,4-oxadiazol-3-yl}pyrazin-2-amine]
EC50 (S1P1 [1]): 72.8 nM

Cc1ccccc1-c1ccc(-c2nc(-c3ccc(N)nc3)no2)cc1C(F)(F)F [Example 19, 5-{5-[2′-methyl-2-(trifluoromethyl)biphenyl-4-yl]-1,2,4-oxadiazol-3-yl}pyridin-2-amine]
EC50 (S1P1 [1]): 22.3 nM

COCc1cc(-c2nc(-c3ccc(OC)nc3)no2)ccc1-c1ccccc1C [Example 23, 2-methoxy-5-{5-[2-(methoxymethyl)-2′-methylbiphenyl-4-yl]-1,2,4-oxadiazol-3-yl}pyridine]
EC50 (S1P1 [1]): 74.1 nM

COCc1cc(-c2nc(-c3ccc(C(=O)O)nc3)no2)ccc1-c1ccccc1C [Example 25, 5-{5-[2-(methoxymethyl)-2′-methylbiphenyl-4-yl]-1,2,4-oxadiazol-3-yl}pyridine-2-carboxylic acid, hydrochloride salt]
EC50 (S1P1 [1]): 39.9 nM

COCc1cc(-c2nc(-c3ccc(C(N)=O)nc3)no2)ccc1-c1ccccc1C [Example 26, 5-{5-[2-(methoxymethyl)-2′-methylbiphenyl-4-yl]-1,2,4-oxadiazol-3-yl}pyridine-2-carboxamide]
EC50 (S1P1 [1]): 45.2 nM

CNc1ccc(-c2noc(-c3ccc(-c4ccccc4C)c(COC)c3)n2)cn1 [Example 29, 5-{5-[2-(methoxymethyl)-2′-methylbiphenyl-4-yl]-1,2,4-oxadiazol-3-yl}-N-methylpyridin-2-amine]
EC50 (S1P1 [1]): 43.8 nM

COCc1cc(-c2nc(-c3ccc(N(C)C)nc3)no2)ccc1-c1ccccc1C [Example 30, 5-{5-[2-(methoxymethyl)-2′-methylbiphenyl-4-yl]-1,2,4-oxadiazol-3-yl}-N,N-dimethylpyridin-2-amine]
EC50 (S1P1 [1]): 688 nM

COCc1cc(-c2nc(-c3ccc(N4CCCC4)nc3)no2)ccc1-c1ccccc1C [Example 31, 5-{5-[2-(methoxymethyl)-2′-methylbiphenyl-4-yl]-1,2,4-oxadiazol-3-yl}-2-pyrrolidin-1-ylpyridine]
EC50 (S1P1 [1]): 873 nM

COCc1cc(-c2nc(-c3cnc(NCCC(=O)OC(C)(C)C)c(Cl)c3)no2)ccc1-c1ccccc1C [Example 35, tert-butyl N-(3-chloro-5-{5-[2-(methoxymethyl)-2′-methylbiphenyl-4-yl]-1,2,4-oxadiazol-3-yl}pyridin-2-yl)-beta-alaninate]
EC50 (S1P1 [1]): 9.45 nM

COCc1cc(-c2nc(-c3cnc(NCC(=O)O)c(Cl)c3)no2)ccc1-c1ccccc1C [Example 38, N-(3-chloro-5-{5-[2-(methoxymethyl)-2′-methylbiphenyl-4-yl]-1,2,4-oxadiazol-3-yl}pyridin-2-yl)glycine, hydrochloride salt]
EC50 (S1P1 [1]): 29.1 nM

CC1CCCCN1c1ccc(-c2nc(-c3cnc(N)c(Cl)c3)no2)cc1C(F)(F)F (stereo not drawn) [Example 39, 3-chloro-5-{5-[4-(2-methylpiperidin-1-yl)-3-(trifluoromethyl)phenyl]-1,2,4-oxadiazol-3-yl}pyridin-2-amine]
EC50 (S1P1 [1]): 32.6 nM

Cc1ccccc1-c1ccc(-c2nc(-c3ccc(CN(C)CC(=O)O)nc3)no2)cc1C(F)(F)F [Example 74, 2-(methyl((5-(5-(2′-methyl-2-(trifluoromethyl)biphenyl-4-yl)-1,2,4-oxadiazol-3-yl)pyridin-2-yl)methyl)amino)acetic acid]
IC50 (S1P1 [2]; [5]): 7.83e-09 M
EC50 [3]: 17.9 nM
IC50 (S1P3; [6]): 2.88e-06 M

Cc1ccccc1-c1ccc(-c2nc(-c3ccnc(CN(C)CC(=O)O)c3)no2)cc1C(F)(F)F [Example 75, 2-(((4-(5-(2-(trifluoromethyl)-2′-methylbiphenyl-4-yl)-1,2,4-oxadiazol-3-yl)pyridin-2-yl)methyl)(methyl)amino)acetic acid]
IC50 (S1P1 [2]; [5]): 9.46e-09 M
EC50 [3]: 15.2 nM
IC50 (S1P3; [6]): 2.26e-06 M

COCc1cc(-c2nc(-c3ccc(CN(C)CC(=O)O)nc3)no2)ccc1-c1ccccc1C [Example 78, 2-(((5-(5-(2-(methoxymethyl)-2′-methylbiphenyl-4-yl)-1,2,4-oxadiazol-3-yl)pyridin-2-yl)methyl)(methyl)amino)acetic acid]
IC50 (S1P1 [2]; [4]): 3.01e-09 M
IC50 (S1P1 [2]; [5]): 3.5e-09 M
EC50 [3]: 9.48 nM
IC50 (S1P3; 96 well-plate, read-out: S1P3 binding IC50 (M) (96 well-plate)): 3.04e-06 M
IC50 (S1P3; [6]): 2.48e-06 M
